Test system: N2a cells
Test: MTT proliferation assay, rapamycin mediated cell growth inhibition of N2a cells
Assay type: cell-based, mouse
Settings: FIG. 7
From the text: FIG. 7 illustrates sensitivity of the N2a cell line to the growth inhibitory effect of rapamycin.
In a preferred embodiment, an MTT proliferation assay (see, e.g., van de Loosdrechet, et al., 1994, J. Immunol. Methods 174: 311-320; Ohno et al., 1991, J. Immunol. Methods 145:199-203; Ferrari et al., 1990, J. Immunol. Methods 131: 165-172; Alley et al., 1988, Cancer Res. 48: 589-601; Carmichael et al., 1987, Cancer Res. 47:936-942; Gerlier et al., 1986, J. Immunol. Methods 65:55-63; Mosmann, 1983, J. Immunological Methods 65:55-63) is used to screen for a candidate agent in conjunction with rapamycin to inhibit the growth of rapamycin resistant cells. The cells are treated with chosen concentrations of the candidate agent and rapamycin for 4 to 72 hours. The cells are then incubated with a suitable amount of 3-(4,5-dimethylthiazol-2-yl)-2,5-diphenyltetrazolium bromide (MTT) for 1-8 hours such that viable cells convert MTT into an intracellular deposit of insoluble formazan. After removing the excess MTT contained in the supernatant, a suitable MTT solvent, e.g., a DMSO solution, is added to dissolved the formazan. The concentration of […], which is proportional to the number of viable cells, is then measured by determining the optical density at […]. […]

CO[C@H]1C[C@@H]2CC[C@@H](C)[C@@](O)(O2)C(=O)C(=O)N2CCCC[C@H]2C(=O)O[C@H]([C@H](C)C[C@@H]2CC[C@@H](O)[C@H](OC)C2)CC(=O)[C@H](C)/C=C(\C)[C@@H](O)[C@@H](OC)C(=O)[C@H](C)C[C@H](C)/C=C/C=C/C=C/1C [rapamycin, 9,10,12,13,14,21,22,23,24,25,26,27,32,33,34,34a-hexadecahydro-9,27-dihydroxy-3-[2-(4-hydroxy-3-methoxycyclohexyl)-1-methylethyl]-10,21-dimethoxy-6,8,12,14,20,26-hexamethyl-23,27-epoxy-3H-pyrido[2,1-c][1,4]oxaazacyclohentricontine-1,5,11,28,29(4H,6H,31H)-pentone]
rapamycin concentration at which the growth of N2a cells is completely inhibited (N2a cell line): ≥ 1 µM | rapamycin concentration at which N2a cells are sensitive to cell growth inhibition (mouse neuroblastoma N2a cells, MTT assay): 10 nM
